According to patent US20160095837A1, “MODULATION OF MITOCHONDRIAL CALCIUM UNIPORTER ACTIVITY FOR TREATING AND PREVENTING ARRHYTHMIAS” (priority 2014, published 2016):

Assays:
[1] = target: T1, mitochondrial calcium uniporter (MCU) (Homo sapiens, UniProt Q8NE86); assay: Calcium green mitochondrial Ca2+ uptake assay in permeabilized HEK cells; type: cell-based; conditions: Ru360 10 μM or DN-MCU adenovirus (FIG. 6)
T1 construct: We measured mitochondrial Ca^2+ uptake using permeabilized HEK cells; endogenous in cells; host or cells: HEK293 cells, saponin-permeabilized
T1 sequence (Q8NE86 51-351): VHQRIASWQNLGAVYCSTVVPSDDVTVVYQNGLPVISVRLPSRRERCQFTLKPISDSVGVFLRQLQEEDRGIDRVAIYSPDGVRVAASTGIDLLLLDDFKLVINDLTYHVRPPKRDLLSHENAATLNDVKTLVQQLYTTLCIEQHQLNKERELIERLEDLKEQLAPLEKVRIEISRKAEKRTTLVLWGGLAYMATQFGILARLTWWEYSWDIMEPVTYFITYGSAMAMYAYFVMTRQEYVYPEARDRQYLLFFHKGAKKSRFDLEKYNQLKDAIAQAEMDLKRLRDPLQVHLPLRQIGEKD
T1 sequence (Q9H4I9 48-107 partner limits assumed): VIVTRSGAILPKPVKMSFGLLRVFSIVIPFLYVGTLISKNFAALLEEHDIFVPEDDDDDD
Experimental: (§1) SAN cells were placed in Tyrode's solution at 36±0.5° C. and were identified by their characteristic morphology (spindle or spider shape) and spontaneous activity. SAN cells were identified electrophysiologically by spontaneous action potentials with a slow depolarizing phase 4 and the hyperpolarization-activated current (If).^27 Spontaneous action potentials, If and ICa were recorded using the perforated (amphotericin B or β-escin in studies requiring dialysis of Ru360 and/or ATP) patch-clamp technique^28 on single SAN cells at 36±0.5° C. in Tyrode's solution. Intracellular Ca^2+ transients were recorded from single SAN cells using Fura-2 AM excited at 340 nm and 380 nm and emitted and 510 nm. Endogenous NADH from single SAN cells was measured by excitation at 350 nm and recording emitted light at 460 nm.^29 Mitochondrial Ca^2+ was measured at 535 nm from mt-pericam expressing SAN cells exited at 415 nm^20. Mitochondrial Ca^2+ entry was measured in cell membrane permeabilized cardiomyocytes isolated from DN-MCU transgenic, wild type mice and from HEK293 cells using Calcium green-5N^30.
We measured mitochondrial Ca^2+ uptake using permeabilized HEK cells as previously described^30,40. […] Fluorescence was measured using a Tecan plate reader. […] Fluorescence intensity was measured from 50,000 […]/well. […]

[2] = test system: Ca2+ uptake into mitochondria in intact myocytes; conditions: incubation with ~10 μM Ru360 for 30 min; cited from earlier work
[3] = test system: mitochondrial Ca2+ concentration ([Ca2+]mito); assay: Mitochondrial Ca2+ measurement with mt-pericam in cultured SAN cells; type: cell-based, mouse; conditions: Ru360 dialysis
Experimental: as §1
Freshly isolated mouse SAN tissue was cut into small pieces and put into 35 mm tissue culture plates with DMEM. […] Expression of the recombinant ratio-5mt-pericam and DN-MCU in SAN cells was detected by GFP fluorescence. […]

[4] = test system: NADH; assay: NADH autofluorescence in SAN cells; type: cell-based, mouse; conditions: Ru360 dialysis
Experimental: as §1
The autofluorescence of endogenous NADH, which derives primarily from mitochondria,^29,35 was measured as described^29. NADH was excited at 350 nm (AT350/SOX, Chroma) and fluorescence was recorded at 460 nm (ET460/50m and T400LP, Chroma). […]

(μ)[(HCO2)(NH3)4Ru]2OCl3) [Ru360]
Mitochondrial Ca2+ entry [1]: similarly effective at preventing | Block of Ca2+ uptake into mitochondria in intact myocytes [2]: completely blocks | ISO-induced increase in [Ca2+]mito [3]: prevented | ISO-induced increase in NADH fluorescence [4]: prevented
